This note sets out measurements from US20020183290A1, “Adrenergic receptor antagonists selective for both alpha1A-and alpha1D-subtypes and uses therefor” (Recordati S.A., Chemical and Pharmaceutical Company, priority 2001, published 2002).

Read-outs that look alike come from different tables or passages of the source.

Broadly, the Ki is a dissociation constant, usually derived from enzyme kinetics or from competition with a known ligand.

Test [1] has as its system conscious rats with partial urethral obstruction. Briefly: Cystometry in conscious rats obstructed by partial urethra ligature (unstable-bladder contractions). The class given is in vivo, rat. Conditions: for inhibition in vivo at 0.3 mg/kg / inhibition in vivo at 1 mg/kg / inhibition in vivo at 0.1 mg/kg: 2 min; for Amplitude of non-effective micturition contractions, After Treat. / Frequency (number) of non-effective micturition contractions, After Treat.: after treatment; for Activity as inhibitors of unstable-bladder contractions (in words): obstructed conscious rats, summary of Tables 1 and 2. From the text: A useful animal model system for measuring such pharmacological activity is, without limitation, cystometry in conscious rats with partial bladder-neck obstruction. […] This model is reported in the literature as related to LUTS occurring in patients having obstructive urethral syndromes (Michel, 2000, Drugs of Today. 386 (Supp. B2): 3-6)
In order to obtain a partial obstruction of the urethra, the method previously reported by Malgren (Nalgren et al., 1987, J. Urol. 137:1291-1294; 1988, Neurourol. Urodyn. 6:371), was followed with minor modifications (Guarneri et al., 1991, Pharmacol. Res. 24:263).
Female rats of the Sprague-Dawley strain [Crl:CD(SD)BR, from Charles River Italia, Calco, Como, Italy] weighing 225-275 g were used. The animals were maintained in constant temperature and humidity conditions, on a forced 12-hour light-dark cycle and with food and water ad libitum for at least one week before the experiment.
After being anaesthetized with 3 ml/kg i.p. equitensin (pentobarbital 1.215 g, chloral hydrate 5.312 g, magnesium sulphate 2.657 g, ethanol 12.5 ml, propylene glycol 49.5 ml, distilled water to 125 ml of final volume), the rats were placed in a supine position and the bladder and urethra were exposed via an incision in the shaven abdomens and gently pulling away the muscle portion. The urethra was cannulated with a polyethylene tube with an outside diameter of 1.22 mm, and the urinary bladder was then emptied and, via the cannula introduced through the urethra, filled with physiological saline. A silk (Ethicon 3/0) ligature was placed around the urethra with the cannula inside and the intraurethral cannula was then removed. The abdominal incision was sutured and, immediately after the operative procedure, antibiotic medication (penicillin G 200 000 I.U./kg i.p. and streptomycin 260 mg/kg i.p.) was performed.
Three weeks after the procedure for partially obstructing the urethra, the animals were prepared for cystometry by surgical insertion into the bladder of a catheter, through which the bladder was gradually filled.
The rats, anaesthetised with equitensin 3 ml/kg i.p., were placed in a supine position and, via an incision of about 10 mm in the abdominal wall, the urinary bladder was exposed and gently freed from surrounding tissues.
The urinary bladder was emptied manually and cannulated, via a small incision at the bladder top, with a polyethylene cannula (type PE-50, 0.58 mm I.D. ×0.96 mm O.D.), which was permanently secured to the bladder with silk thread.
The cannula was exposed through a subcutaneous tunnel in the retroscapular area, where it was fastened with a plastic adapter, in order to avoid the risk of removal by the animal. After washing the urinary bladder with physiological saline, the catheter was sealed using a small flame and the abdominal incision was sutured.
To allow evaluation of the effect of a test compound after intravenous administration, the jugular vein was cannulated with a polyethylene cannula (type PE-50, 0.58 mm I.D.×0.96 mm O.D.) filled with heparinised physiological saline. As for the bladder catheter, this cannula, too, was exteriorised, secured and sealed in the retroscapular area.
Two days after the operation, the rats, fasted overnight, were placed in Bollman's cages or in Bollman's cages modified so as to have an opening in the bottom to allow collection of urinated fluid.
After an adaptation period of 20 minutes, the free end of the bladder cannula was connected to a pressure transducer and a special apparatus which allowed infusion into the urinary bladder of physiological saline at 37° C. at a constant rate of 10 ml/hour. Intravesical pressure changes caused by bladder filling were recorded by the pressure transducer which was connected to a recording polygraph.
From the cystometrograms, the frequency and mean amplitude of spontaneous bladder contractions not inducing micturition, termed “unstable-bladder contractions” (UBC), within 2 minutes prior to micturition were evaluated. […]

For test [2], the target named is T1, cloned α1d-adrenoceptor subtype (Homo sapiens, UniProt P25100).
T1 construct: expressed in transfected cells
T1 sequence (P25100 1-572): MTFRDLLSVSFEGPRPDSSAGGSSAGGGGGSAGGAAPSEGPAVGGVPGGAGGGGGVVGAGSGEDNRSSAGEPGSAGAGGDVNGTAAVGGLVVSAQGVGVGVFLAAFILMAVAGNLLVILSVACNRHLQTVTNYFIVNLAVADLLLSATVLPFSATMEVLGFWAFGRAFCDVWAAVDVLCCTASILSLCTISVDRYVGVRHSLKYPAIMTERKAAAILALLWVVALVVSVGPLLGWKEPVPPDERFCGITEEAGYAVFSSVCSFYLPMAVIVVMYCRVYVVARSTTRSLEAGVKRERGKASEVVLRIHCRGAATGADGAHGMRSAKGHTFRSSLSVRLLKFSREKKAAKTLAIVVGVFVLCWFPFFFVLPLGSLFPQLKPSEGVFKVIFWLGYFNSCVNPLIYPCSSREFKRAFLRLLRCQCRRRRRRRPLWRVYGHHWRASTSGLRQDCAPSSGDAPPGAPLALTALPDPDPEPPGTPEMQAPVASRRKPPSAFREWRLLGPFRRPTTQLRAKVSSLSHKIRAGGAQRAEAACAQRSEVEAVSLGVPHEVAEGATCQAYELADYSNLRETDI
Briefly: Radioligand binding assay ([3H]prazosin), cloned α1d-adrenoceptor subtype. The settings on record: read-out: Binding Affinity (Ki nM) α1d. As for the experimental part:
(§1) Springer-Verlag, pp. 10-12). […] The results from these assays are used to calculate a measure of receptor selectivity, expressed as the ratio of affinities (Ki) for a given pair of receptors.
(§2) Determination of affinity for cloned subtypes of α1-adrenoceptor subtypes was performed in membranes from cells transfected by electroporation with DNA expressing the genes encoding each α1-adrenoceptor subtype.
(§3) Non-specific binding was determined in the presence of 10 μM phentolamine. Incubation was stopped by addition of ice-cold Tris buffer and rapid filtration through 0.2% polyethyleneimine-pretreated Schleicher & Schuell GF52 filters. […] Data were expressed as mean Ki.

Test [3] deals with T2, cloned α1b-adrenoceptor subtype (Homo sapiens, UniProt P35368).
T2 construct: expressed in transfected cells
T2 sequence (P35368 1-520): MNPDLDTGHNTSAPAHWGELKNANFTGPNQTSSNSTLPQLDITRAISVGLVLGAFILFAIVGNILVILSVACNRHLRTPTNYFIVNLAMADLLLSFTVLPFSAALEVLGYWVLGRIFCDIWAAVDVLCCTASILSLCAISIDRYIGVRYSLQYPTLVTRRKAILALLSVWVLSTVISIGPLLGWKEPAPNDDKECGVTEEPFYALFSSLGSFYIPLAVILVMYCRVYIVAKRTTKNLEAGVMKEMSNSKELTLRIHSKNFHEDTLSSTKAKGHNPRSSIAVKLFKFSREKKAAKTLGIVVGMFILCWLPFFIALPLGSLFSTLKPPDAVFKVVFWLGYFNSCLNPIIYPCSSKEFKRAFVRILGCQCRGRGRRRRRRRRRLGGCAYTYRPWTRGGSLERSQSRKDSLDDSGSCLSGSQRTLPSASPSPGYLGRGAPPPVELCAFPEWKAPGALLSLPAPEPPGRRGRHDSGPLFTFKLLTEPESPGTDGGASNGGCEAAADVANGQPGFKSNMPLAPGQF
Briefly: Radioligand binding assay ([3H]prazosin), cloned α1b-adrenoceptor subtype. Conditions: read-out: Binding Affinity (Ki nM) α1b. As for the experimental part: as §1, §2, §3

Where [4] appears, read: obstructed rat, 0.3 mg/kg, 2 minutes before micturition, read-out: % inhibition of frequency of non-effective micturition contractions.
[5] abbreviates: obstructed rat, 2 minutes before micturition, read-out: % inhibition of frequency of non-effective micturition contractions.
[6] abbreviates: Rattus norvegicus, read-out: % inhibition of amplitude of non-effective micturition contractions.
The mark [7] stands for this setting: Rattus norvegicus, read-out: % inhibition of frequency of non-effective micturition contractions.
[8] abbreviates: obstructed rat, 0.3 mg/kg, 2 minutes before micturition, read-out: % inhibition of amplitude of non-effective micturition contractions.
Where [9] appears, read: obstructed rat, 2 minutes before micturition, read-out: % inhibition of amplitude of non-effective micturition contractions.
The mark [10] stands for this setting: obstructed rat, 0.1 mg/kg, 2 minutes before micturition, read-out: % inhibition of amplitude of non-effective micturition contractions.
Setting [11] is: obstructed rat, 0.1 mg/kg, 2 minutes before micturition, read-out: % inhibition of frequency of non-effective micturition contractions.

For the compound `COc1ccccc1N1CCN(CCCNC(=O)c2csc3c(=O)cc(C(F)(F)F)oc23)CC1` [Compound A, N-{3-[4-(2-methoxyphenyl)-1-piperazinyl]propyl}-7-keto-5-trifluoromethyl-7H-thieno [3,2-b]pyran-3-carboxamide], the inhibition in vivo at 0.3 mg/kg in test [1] (setting [4]) was 44%. For the same compound, in test [1] (setting [5]), the inhibition in vivo at 1 mg/kg came to 67%.
Turning to `COc1cc2nc(N3CCN(C(=O)c4ccco4)CC3)nc(N)c2cc1OC` [Prazosin, prazosin], in test [1] (setting [6]), the inhibition in vivo at 0.1 mg/kg came to 63% and the inhibition in vivo at 0.3 mg/kg came out at 87%. Also, in test [1] (setting [7]), the inhibition in vivo at 0.1 mg/kg amounted to 48% and the inhibition in vivo at 0.3 mg/kg is 74%. In test [1] (0.1 mg/kg), the “Amplitude of non-effective micturition contractions, After Treat.” value came out at 3.1 ± 0.9 mmHg and the “Frequency (number) of non-effective micturition contractions, After Treat.” value was determined as 2.8 ± 0.8. Besides, in test [1] (0.3 mg/kg), the “Amplitude of non-effective micturition contractions, After Treat.” value stood at 2.1 ± 1.5 mmHg and the “Frequency (number) of non-effective micturition contractions, After Treat.” value was determined as 2.3 ± 1.1. In addition, the “Activity as inhibitors of unstable-bladder contractions (in words)” value (shortened to “Activity as inhibitors”) in test [1] is “marked and dose-dependent reduction”.
As to `O=C1CC2(CCCC2)CC(=O)N1CCN1CCN(c2cc(Cl)ccc2Cl)CC1` [Rec 26D/038], the Ki in test [2] stood at 0.13 nM; in test [3], 19 nM. Besides, the inhibition in vivo at 0.3 mg/kg in test [1] (setting [8]) turned out to be 39%; in test [1] (setting [4]), 38%. Also, the results for the inhibition in vivo at 1 mg/kg in test [1] (setting [9]) and in test [1] (setting [5]) were 21% and 27%, respectively. Besides, the “Amplitude of non-effective micturition contractions, After Treat.” value in test [1] (0.3 mg/kg) is on record as 6.6 ± 1.5 mmHg; in test [1] (1.0 mg/kg) it was 7.5 ± 1.6 mmHg. Moreover, the “Frequency (number) of non-effective micturition contractions, After Treat.” value is recorded as 3.6 ± 0.7 in test [1] (0.3 mg/kg) and 4.5 ± 1.2 in test [1] (1.0 mg/kg). Moreover, the “Activity as inhibitors” value in test [1] was “poorly active”.
On to `O=C1CC2(CCCC2)CCN1CCN1CCN(c2cc(Cl)ccc2Cl)CC1` [Rec 26D/073], for which the inhibition constant (Ki) was 0.11 nM in test [2] and 11 nM in test [3]. For the same compound, the inhibition in vivo at 0.3 mg/kg is 16% in test [1] (setting [8]) and 31% in test [1] (setting [4]). In addition, the values for the inhibition in vivo at 1 mg/kg in test [1] (setting [9]) and in test [1] (setting [5]) were 18% and 25%, respectively. In addition, the “Amplitude of non-effective micturition contractions, After Treat.” value in test [1] (0.3 mg/kg) came out at 6.2 ± 1.6 mmHg; in test [1] (1.0 mg/kg), 7.5 ± 1.2 mmHg. Moreover, the “Frequency (number) of non-effective micturition contractions, After Treat.” value amounted to 2.8 ± 0.7 in test [1] (0.3 mg/kg) and 4.4 ± 0.7 in test [1] (1.0 mg/kg). Further, the “Activity as inhibitors” value in test [1] is “poorly active”.
Take `CCOc1ccccc1OCCN[C@H](C)Cc1ccc(OC)c(S(N)(=O)=O)c1` [Tamsulosin, tamsulosin]: the Ki turned out to be 0.16 nM in test [2] (cloned receptor, cell membranes, 0.2 nM [3H]prazosin, mean Ki) and 0.94 nM in test [3]. Also, the inhibition in vivo at 0.1 mg/kg in test [1] (setting [10]) amounted to 52%; in test [1] (setting [11]), 61%. In test [1] (0.1 mg/kg), the “Amplitude of non-effective micturition contractions, After Treat.” value stood at 3.7 ± 1.1 mmHg. Moreover, the “Frequency (number) of non-effective micturition contractions, After Treat.” value in test [1] (0.1 mg/kg) was found to be 1.9 ± 0.7. Besides, in test [1], the “Activity as inhibitors” value was “very potent”.
In the case of `COc1cc2nc(N3CCN(C(=O)C4CCCO4)CC3)nc(N)c2cc1OC` (centres unmarked) [Terazosin, terazosin], the figures for the inhibition in vivo at 0.1 mg/kg in test [1] (setting [10]) and in test [1] (setting [11]) were 31% and 30%, respectively. In addition, the inhibition in vivo at 0.3 mg/kg in test [1] (setting [8]) stood at 64%; in test [1] (setting [4]), 65%. The figures for the inhibition in vivo at 1 mg/kg in test [1] (setting [9]) and in test [1] (setting [5]) were 86% and 93%, respectively. Further, the results for the “Amplitude of non-effective micturition contractions, After Treat.” value in test [1] (0.1 mg/kg), in test [1] (0.3 mg/kg) and in test [1] (1.0 mg/kg) were 6.6 ± 0.7 mmHg, 3.7 ± 1.1 mmHg and 0.8 ± 0.8 mmHg, respectively. Also, the “Frequency (number) of non-effective micturition contractions, After Treat.” value in test [1] (0.1 mg/kg) is given as 4.0 ± 0.3; in test [1] (0.3 mg/kg), 1.9 ± 0.5; in test [1] (1.0 mg/kg) it was 0.3 ± 0.3. The “Activity as inhibitors” value in test [1] was “marked and dose-dependent reduction”.
